Experimental data as given in patent US20240082212A1, “USE OF MDMA FOR TREATMENT OF STRESS-RELATED DISORDERS” (priority 2022, published 2024).

Experiments:
[1] = rats; 1 week after 4 hourly SC injections at 10 mg/kg/injection (Biezonski et al., 2013); cited from earlier work
PTSD participants = settings: cited from earlier work
rats = settings: 4 hourly SC injections at 10 mg/kg/injection (Biezonski et al., 2013); cited from earlier work
Adrenergic α2B = target: T1, Adrenergic α2B (Homo sapiens, UniProt P18089); experiment: Eurofins Panlabs radioligand binding panel, adrenergic α2B; settings: 10 uM
T1 sequence (P18089 1-450): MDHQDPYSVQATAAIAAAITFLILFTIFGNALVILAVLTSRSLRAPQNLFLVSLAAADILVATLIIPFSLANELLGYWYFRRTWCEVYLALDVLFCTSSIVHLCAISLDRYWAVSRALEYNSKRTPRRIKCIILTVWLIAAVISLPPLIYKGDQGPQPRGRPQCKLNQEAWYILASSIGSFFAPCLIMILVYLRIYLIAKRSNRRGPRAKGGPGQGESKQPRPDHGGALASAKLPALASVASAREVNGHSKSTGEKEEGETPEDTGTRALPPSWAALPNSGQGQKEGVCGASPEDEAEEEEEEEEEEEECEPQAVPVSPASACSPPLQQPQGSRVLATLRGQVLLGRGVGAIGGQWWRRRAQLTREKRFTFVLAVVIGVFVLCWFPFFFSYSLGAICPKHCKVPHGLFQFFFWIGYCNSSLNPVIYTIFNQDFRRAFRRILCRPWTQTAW

Adrenergic α2A = target: T2, Adrenergic α2A (Homo sapiens, UniProt P08913); experiment: Eurofins Panlabs radioligand binding panel, adrenergic α2A; settings: 10 uM
T2 sequence (P08913 1-465): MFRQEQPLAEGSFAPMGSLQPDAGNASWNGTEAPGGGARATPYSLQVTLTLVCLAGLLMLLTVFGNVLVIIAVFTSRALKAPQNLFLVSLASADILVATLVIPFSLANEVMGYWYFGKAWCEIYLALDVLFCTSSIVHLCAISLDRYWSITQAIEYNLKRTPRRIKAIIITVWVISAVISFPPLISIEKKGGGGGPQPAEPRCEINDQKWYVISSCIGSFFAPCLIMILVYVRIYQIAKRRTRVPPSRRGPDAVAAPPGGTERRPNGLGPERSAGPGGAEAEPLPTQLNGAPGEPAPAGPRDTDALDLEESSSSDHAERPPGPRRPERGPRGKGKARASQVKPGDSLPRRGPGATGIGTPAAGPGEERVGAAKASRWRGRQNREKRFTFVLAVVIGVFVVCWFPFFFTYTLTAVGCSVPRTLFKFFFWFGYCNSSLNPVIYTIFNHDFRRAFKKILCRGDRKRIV
Description: Each of the compounds was evaluated for binding to 87 different targets as part of a panel (Eurofins Panlabs, Taiwan, China). Each compound was tested at a single concentration of […]. The panel included mostly G-protein-couple receptors, ion channels, enzymes, transporters and nuclear receptors, expressed in the central nervous system, cardiovascular, respiratory, gastrointestinal and renal systems. A limited number of targets were of pig, rat or guinea pig origin. Targets were expressed in human recombinant cells lines, rat brain or spinal cord, guinea pig brain or pig heart. Methods were adapted from the scientific literature to maximize reliability and reproducibility. Reference standards were run as an integral part of each assay to ensure validity of the results obtained (available online at the eurofins website for the safety screen 87 panel).

Compound	frontal cortical and striatal monoamine concentrations [1]	vital signs (systolic and diastolic blood pressure and heart rate) (PTSD participants; MDMA group, Phase 3 clinical trial (Mitchell et al., 2021))	efficacy for PTSD (PTSD participants; Phase 3 clinical trial (Mitchell et al., 2021))	transient increase in body temperature to (PTSD participants; two participants in the MDMA group) [°C]	body temperature (rats)	% inhibition of binding or activity (Adrenergic α2B) [%]	% inhibition of binding or activity (Adrenergic α2A) [%]
CNC(C)Cc1ccc2c(c1)OCO2 (racemic) [Racemic MDMA, 3,4-methylenedioxymethamphetamine]	significant reductions in frontal cortical 5-HT and 5-HIAA and striatal DOPAC and HVA concentrations	transient increase in vital signs	efficacy	38.1	significant increase in body temperature		
C[C@H](N)Cc1ccc2c(c1)OCO2 [S-MDA, S(+)-MDA]						51	63
